In ChEMBL document CHEMBL5029143, “Discovery of New Potent Positive Allosteric Modulators of Dopamine D2 Receptors: Insights into the Bioisosteric Replacement of Proline to 3-Furoic Acid in the Melanostatin Neuropeptide” (J Med Chem, 2021):
Residues, ends and D or L forms follow the SMILES beside them.

Columns and labels:
[1] = biological target: D(2) dopamine receptor (Homo sapiens) (UniProt P14416); conditions: CHO, filed as positive allosteric modulator, dose 0.01 nM, time 10.0 min
[2] = Neurotoxicity in human SH-SY5Y cells assessed as reduction in cell viability at 200 uM measured after 48 hrs by MTT reduction assay (Rvb= 100 +/- 2.79%); type: cell-based; conditions: read-out: Activity
[3] = Neurotoxicity in human SH-SY5Y cells assessed as reduction in cell viability at 100 uM measured after 48 hrs by MTT reduction assay (Rvb= 100 +/- 2.79%); type: cell-based; conditions: read-out: Activity
SH-SY5Y = assay: Cytotoxicity against human differentiated SH-SY5Y cells assessed as reduction in cell viability at 100 uM measured after 48 hrs by phase contrast microscopic analysis; type: cell-based

Sequence of D(2) dopamine receptor (Homo sapiens) (P14416 whole entry): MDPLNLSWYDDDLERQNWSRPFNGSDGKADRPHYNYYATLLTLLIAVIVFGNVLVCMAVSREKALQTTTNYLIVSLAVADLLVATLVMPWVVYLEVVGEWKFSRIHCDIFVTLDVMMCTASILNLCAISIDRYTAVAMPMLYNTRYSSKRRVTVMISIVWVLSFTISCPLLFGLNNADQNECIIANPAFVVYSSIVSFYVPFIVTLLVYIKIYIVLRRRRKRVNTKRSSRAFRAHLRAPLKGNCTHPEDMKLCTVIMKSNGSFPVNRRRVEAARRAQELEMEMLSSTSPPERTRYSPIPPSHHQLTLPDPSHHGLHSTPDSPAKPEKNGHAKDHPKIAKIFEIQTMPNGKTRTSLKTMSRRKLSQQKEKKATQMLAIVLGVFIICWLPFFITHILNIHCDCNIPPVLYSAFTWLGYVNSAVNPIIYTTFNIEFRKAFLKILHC

Emax [1] [%] | SMILES | viability at 48 h, 200 µM [2] [%] | viability at 48 h, 100 µM [3] [%] | Activity (SH-SY5Y)
93.6 | CC(C)C[C@H](NC(=O)[C@@H]1CCCN1)C(=O)NCC(N)=O (H-Pro-Leu-Gly-NH2) | – | – | –
– | NCCc1cc(O)c(O)cc1O [OXIDOPAMINE] | 4.06 | 48.6 | Toxic
– | NCCc1ccc(O)c(O)c1 [DOPAMINE] | 66.4 | 96.9 | –
– | CC(C)C[C@H](NC(=O)c1ccoc1)C(=O)NCC(N)=O | 86 | – | –
